Measured values reported in ChEMBL document CHEMBL4507259 (2021).

Assays:
[1] = molecular target: Type-2 angiotensin II receptor (Homo sapiens) (UniProt P50052); test: AT2 (h) CEREP ligand profiling; settings: filed as agonist, Compound concentration 10.0 uM
[2] = molecular target: D(1A) dopamine receptor (Homo sapiens) (UniProt P21728); test: D1 (h) CEREP ligand profiling; settings: filed as antagonist, Compound concentration 10.0 uM
[3] = system: Tyrosine-protein kinase ABL1 (Homo sapiens), P00519 [F317I]; settings: Compound concentration 1000.0 nM
[4] = system: Tyrosine-protein kinase ABL1 (Homo sapiens), P00519 [T315I]; settings: Compound concentration 1000.0 nM
[5] = molecular target: Activin receptor type-2B (Homo sapiens) (UniProt Q13705); settings: Compound concentration 1000.0 nM
[6] = molecular target: Calcium/calmodulin-dependent protein kinase type 1 (Homo sapiens) (UniProt Q14012); settings: Compound concentration 1000.0 nM
[7] = molecular target: Dual specificity protein kinase CLK4 (Homo sapiens) (UniProt Q9HAZ1); settings: Compound concentration 1000.0 nM
[8] = molecular target: Casein kinase I isoform gamma-3 (Homo sapiens) (UniProt Q9Y6M4); settings: Compound concentration 1000.0 nM
[9] = molecular target: Casein kinase II subunit alpha' (Homo sapiens) (UniProt P19784); settings: Compound concentration 1000.0 nM
[10] = molecular target: Dual specificity tyrosine-phosphorylation-regulated kinase 2 (Homo sapiens) (UniProt Q92630); settings: Compound concentration 1000.0 nM
[11] = molecular target: Ephrin type-B receptor 3 (Homo sapiens) (UniProt P54753); settings: Compound concentration 1000.0 nM
[12] = molecular target: Mitogen-activated protein kinase 3 (Homo sapiens) (UniProt P27361); settings: Compound concentration 1000.0 nM
[13] = molecular target: Tyrosine-protein kinase Fes/Fps (Homo sapiens) (UniProt P07332); settings: Compound concentration 1000.0 nM
[14] = molecular target: Vascular endothelial growth factor receptor 1 (Homo sapiens) (UniProt P17948); settings: Compound concentration 1000.0 nM
[15] = molecular target: Tyrosine-protein kinase FRK (Homo sapiens) (UniProt P42685); settings: Compound concentration 1000.0 nM
[16] = molecular target: Mitogen-activated protein kinase 8 (Homo sapiens) (UniProt P45983); settings: Compound concentration 1000.0 nM
[17] = system: Mast/stem cell growth factor receptor Kit (Homo sapiens), P10721 [A829P]; settings: Compound concentration 1000.0 nM
[18] = molecular target: Serine/threonine-protein kinase MARK2 (Homo sapiens) (UniProt Q7KZI7); settings: Compound concentration 1000.0 nM
[19] = molecular target: Dual specificity mitogen-activated protein kinase kinase 4 (Homo sapiens) (UniProt P45985); settings: Compound concentration 1000.0 nM
[20] = molecular target: Serine/threonine-protein kinase Nek1 (Homo sapiens) (UniProt Q96PY6); settings: Compound concentration 1000.0 nM
[21] = molecular target: Mitogen-activated protein kinase kinase kinase 14 (Homo sapiens) (UniProt Q99558); settings: Compound concentration 1000.0 nM
[22] = system: Phosphatidylinositol 4,5-bisphosphate 3-kinase catalytic subunit alpha isoform (Homo sapiens), P42336 [Q546K]; settings: Compound concentration 1000.0 nM
[23] = molecular target: Interferon-induced, double-stranded RNA-activated protein kinase (Homo sapiens) (UniProt P19525); settings: Compound concentration 1000.0 nM
[24] = molecular target: Rho-associated protein kinase 2 (Homo sapiens) (UniProt O75116); settings: Compound concentration 1000.0 nM
[25] = molecular target: NT-3 growth factor receptor (Homo sapiens) (UniProt Q16288); settings: Compound concentration 1000.0 nM
[26] = molecular target: Wee1-like protein kinase 2 (Homo sapiens) (UniProt P0C1S8); settings: Compound concentration 1000.0 nM
[27] = molecular target: Kappa-type opioid receptor (Homo sapiens) (UniProt P41145); settings: Compound concentration 10.0 uM
[28] = molecular target: Alpha-2C adrenergic receptor (Homo sapiens) (UniProt P18825); settings: Compound concentration 10.0 uM
[29] = molecular target: T1, Muscarinic acetylcholine receptor M1 (Homo sapiens) (UniProt P11229); settings: Compound concentration 10.0 uM
T1 sequence (whole entry): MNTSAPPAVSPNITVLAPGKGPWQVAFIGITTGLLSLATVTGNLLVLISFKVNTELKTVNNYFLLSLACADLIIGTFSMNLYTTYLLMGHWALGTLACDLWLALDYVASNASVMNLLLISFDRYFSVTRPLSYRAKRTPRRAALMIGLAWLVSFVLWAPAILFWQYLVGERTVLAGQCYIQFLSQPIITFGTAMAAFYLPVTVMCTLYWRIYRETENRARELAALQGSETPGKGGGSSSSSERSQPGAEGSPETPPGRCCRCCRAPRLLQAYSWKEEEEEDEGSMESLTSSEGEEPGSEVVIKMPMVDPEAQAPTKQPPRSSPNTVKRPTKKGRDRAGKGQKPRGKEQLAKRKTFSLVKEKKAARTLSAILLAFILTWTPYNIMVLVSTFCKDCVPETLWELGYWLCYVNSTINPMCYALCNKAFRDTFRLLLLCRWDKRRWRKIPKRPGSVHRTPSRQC

[30] = molecular target: T2, Muscarinic acetylcholine receptor M2 (Homo sapiens) (UniProt P08172); settings: Compound concentration 10.0 uM
T2 sequence (whole entry): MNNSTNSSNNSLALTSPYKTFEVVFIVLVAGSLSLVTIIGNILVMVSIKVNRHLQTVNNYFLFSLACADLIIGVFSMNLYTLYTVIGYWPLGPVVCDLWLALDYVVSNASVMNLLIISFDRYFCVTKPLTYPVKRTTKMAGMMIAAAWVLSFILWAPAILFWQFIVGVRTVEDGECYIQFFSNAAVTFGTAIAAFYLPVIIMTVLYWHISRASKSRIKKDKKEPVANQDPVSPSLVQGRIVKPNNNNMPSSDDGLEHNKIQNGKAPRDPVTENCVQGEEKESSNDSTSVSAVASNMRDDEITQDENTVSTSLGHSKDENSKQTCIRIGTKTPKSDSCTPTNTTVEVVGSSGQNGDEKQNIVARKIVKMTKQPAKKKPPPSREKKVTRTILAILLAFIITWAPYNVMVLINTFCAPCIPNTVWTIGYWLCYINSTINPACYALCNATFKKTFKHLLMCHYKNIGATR

[31] = molecular target: Sigma intracellular receptor 2 (Homo sapiens, UniProt Q5BJF2); settings: Compound concentration 10.0 uM
[32] = molecular target: Sigma non-opioid intracellular receptor 1 (Homo sapiens) (UniProt Q99720); settings: Compound concentration 10.0 uM

Sequence of Vascular endothelial growth factor receptor 1 (Homo sapiens) (P17948 whole entry): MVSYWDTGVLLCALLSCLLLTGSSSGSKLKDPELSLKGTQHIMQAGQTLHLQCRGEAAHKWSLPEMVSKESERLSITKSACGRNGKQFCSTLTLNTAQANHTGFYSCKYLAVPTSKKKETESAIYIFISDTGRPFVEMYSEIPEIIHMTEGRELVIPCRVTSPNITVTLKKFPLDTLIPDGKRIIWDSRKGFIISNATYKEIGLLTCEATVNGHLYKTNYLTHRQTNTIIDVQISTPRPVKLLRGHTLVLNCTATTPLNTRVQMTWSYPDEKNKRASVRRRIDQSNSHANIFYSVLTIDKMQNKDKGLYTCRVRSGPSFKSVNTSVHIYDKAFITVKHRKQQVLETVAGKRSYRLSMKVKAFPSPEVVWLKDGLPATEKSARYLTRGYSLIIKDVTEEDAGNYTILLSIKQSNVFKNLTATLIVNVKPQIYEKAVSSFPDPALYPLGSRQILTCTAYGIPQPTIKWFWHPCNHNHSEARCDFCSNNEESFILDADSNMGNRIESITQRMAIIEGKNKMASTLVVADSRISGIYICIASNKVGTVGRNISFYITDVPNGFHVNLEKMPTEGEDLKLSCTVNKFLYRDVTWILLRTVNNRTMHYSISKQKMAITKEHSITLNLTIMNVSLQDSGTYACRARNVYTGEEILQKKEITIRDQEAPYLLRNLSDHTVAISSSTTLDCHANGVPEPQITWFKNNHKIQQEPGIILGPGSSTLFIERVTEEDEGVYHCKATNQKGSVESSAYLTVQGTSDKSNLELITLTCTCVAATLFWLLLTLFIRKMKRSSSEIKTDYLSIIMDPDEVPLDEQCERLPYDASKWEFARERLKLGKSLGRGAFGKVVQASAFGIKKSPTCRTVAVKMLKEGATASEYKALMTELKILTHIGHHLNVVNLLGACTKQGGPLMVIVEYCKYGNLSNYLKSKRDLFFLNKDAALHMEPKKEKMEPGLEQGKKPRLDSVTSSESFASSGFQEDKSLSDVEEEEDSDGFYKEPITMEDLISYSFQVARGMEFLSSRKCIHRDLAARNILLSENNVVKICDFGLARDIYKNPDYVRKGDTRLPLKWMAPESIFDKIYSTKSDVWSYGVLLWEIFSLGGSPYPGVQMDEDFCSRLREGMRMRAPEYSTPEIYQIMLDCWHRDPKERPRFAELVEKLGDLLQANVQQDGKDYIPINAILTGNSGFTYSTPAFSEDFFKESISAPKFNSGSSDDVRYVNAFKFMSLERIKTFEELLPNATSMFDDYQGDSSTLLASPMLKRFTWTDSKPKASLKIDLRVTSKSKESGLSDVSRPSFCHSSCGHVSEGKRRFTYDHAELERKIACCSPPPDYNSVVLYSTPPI
Sequence of Mast/stem cell growth factor receptor Kit (Homo sapiens), P10721 [A829P] (P10721 whole entry A829P): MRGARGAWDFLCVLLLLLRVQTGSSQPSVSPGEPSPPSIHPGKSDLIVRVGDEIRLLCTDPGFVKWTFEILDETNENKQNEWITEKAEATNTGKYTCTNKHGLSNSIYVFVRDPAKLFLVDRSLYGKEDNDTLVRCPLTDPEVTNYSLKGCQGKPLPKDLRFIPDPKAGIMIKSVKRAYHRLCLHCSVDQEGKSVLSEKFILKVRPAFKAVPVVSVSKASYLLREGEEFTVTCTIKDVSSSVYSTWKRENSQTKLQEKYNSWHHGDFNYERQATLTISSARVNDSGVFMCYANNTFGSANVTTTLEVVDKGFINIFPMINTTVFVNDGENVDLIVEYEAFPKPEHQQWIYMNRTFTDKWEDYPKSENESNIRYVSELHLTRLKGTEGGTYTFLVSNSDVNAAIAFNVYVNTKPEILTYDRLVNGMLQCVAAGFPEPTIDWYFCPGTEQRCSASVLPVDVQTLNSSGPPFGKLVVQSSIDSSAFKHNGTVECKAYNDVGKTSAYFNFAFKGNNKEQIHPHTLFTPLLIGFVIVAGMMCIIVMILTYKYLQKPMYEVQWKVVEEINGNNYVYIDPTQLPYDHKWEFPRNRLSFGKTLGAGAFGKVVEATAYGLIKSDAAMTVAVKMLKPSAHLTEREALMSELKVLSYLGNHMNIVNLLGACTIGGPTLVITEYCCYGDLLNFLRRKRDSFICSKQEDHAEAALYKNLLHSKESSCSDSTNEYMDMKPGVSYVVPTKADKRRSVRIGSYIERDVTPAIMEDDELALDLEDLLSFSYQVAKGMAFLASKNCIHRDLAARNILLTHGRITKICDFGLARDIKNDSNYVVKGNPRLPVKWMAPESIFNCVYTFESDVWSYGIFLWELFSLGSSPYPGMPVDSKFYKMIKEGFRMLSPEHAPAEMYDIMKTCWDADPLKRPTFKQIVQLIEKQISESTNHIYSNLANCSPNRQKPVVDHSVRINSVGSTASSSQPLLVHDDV
Sequence of Dual specificity tyrosine-phosphorylation-regulated kinase 2 (Homo sapiens) (Q92630 whole entry): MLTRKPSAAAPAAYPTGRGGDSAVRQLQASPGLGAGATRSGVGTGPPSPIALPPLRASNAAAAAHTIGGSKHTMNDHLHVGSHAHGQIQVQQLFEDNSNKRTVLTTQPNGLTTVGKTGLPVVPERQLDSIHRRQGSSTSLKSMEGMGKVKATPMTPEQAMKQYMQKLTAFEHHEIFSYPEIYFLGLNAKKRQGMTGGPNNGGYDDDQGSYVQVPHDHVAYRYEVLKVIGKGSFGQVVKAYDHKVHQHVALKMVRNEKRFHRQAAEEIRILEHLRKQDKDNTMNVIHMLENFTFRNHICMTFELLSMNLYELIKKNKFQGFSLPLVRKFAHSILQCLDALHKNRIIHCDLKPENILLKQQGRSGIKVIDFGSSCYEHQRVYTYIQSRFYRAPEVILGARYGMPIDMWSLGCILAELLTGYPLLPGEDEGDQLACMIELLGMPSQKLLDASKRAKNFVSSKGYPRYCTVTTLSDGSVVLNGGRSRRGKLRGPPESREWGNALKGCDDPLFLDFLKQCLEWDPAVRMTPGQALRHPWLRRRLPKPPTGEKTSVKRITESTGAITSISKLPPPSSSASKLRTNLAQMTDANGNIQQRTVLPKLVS
Sequence of Phosphatidylinositol 4,5-bisphosphate 3-kinase catalytic subunit alpha isoform (Homo sapiens), P42336 [Q546K] (P42336 whole entry Q546K, canonical isoform): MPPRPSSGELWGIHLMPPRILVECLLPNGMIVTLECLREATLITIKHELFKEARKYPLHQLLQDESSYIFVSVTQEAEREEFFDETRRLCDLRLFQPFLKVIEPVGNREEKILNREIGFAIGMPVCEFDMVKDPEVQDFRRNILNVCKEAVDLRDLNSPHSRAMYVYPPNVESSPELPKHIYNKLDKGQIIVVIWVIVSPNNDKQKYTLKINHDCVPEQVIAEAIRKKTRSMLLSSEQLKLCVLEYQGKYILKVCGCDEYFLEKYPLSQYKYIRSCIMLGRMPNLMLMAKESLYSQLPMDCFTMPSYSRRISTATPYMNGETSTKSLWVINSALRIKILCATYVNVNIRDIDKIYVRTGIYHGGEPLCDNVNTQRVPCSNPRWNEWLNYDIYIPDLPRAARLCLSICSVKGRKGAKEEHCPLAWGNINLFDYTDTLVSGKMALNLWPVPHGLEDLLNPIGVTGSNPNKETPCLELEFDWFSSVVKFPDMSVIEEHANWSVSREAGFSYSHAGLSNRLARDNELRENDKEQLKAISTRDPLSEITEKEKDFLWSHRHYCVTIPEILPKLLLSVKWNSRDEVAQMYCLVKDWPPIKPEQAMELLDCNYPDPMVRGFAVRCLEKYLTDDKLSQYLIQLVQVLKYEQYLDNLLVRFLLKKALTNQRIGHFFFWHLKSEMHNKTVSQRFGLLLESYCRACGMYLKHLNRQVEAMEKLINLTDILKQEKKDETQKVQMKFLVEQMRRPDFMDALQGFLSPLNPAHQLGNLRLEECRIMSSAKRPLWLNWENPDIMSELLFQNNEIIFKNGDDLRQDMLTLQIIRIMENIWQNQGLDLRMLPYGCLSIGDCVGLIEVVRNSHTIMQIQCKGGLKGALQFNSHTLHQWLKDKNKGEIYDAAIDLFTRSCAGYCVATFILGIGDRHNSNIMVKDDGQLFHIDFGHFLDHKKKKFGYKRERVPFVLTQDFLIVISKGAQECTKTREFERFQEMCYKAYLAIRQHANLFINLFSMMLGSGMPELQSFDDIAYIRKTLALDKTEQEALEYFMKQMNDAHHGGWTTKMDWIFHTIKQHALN
Sequence of Tyrosine-protein kinase Fes/Fps (Homo sapiens) (P07332 whole entry): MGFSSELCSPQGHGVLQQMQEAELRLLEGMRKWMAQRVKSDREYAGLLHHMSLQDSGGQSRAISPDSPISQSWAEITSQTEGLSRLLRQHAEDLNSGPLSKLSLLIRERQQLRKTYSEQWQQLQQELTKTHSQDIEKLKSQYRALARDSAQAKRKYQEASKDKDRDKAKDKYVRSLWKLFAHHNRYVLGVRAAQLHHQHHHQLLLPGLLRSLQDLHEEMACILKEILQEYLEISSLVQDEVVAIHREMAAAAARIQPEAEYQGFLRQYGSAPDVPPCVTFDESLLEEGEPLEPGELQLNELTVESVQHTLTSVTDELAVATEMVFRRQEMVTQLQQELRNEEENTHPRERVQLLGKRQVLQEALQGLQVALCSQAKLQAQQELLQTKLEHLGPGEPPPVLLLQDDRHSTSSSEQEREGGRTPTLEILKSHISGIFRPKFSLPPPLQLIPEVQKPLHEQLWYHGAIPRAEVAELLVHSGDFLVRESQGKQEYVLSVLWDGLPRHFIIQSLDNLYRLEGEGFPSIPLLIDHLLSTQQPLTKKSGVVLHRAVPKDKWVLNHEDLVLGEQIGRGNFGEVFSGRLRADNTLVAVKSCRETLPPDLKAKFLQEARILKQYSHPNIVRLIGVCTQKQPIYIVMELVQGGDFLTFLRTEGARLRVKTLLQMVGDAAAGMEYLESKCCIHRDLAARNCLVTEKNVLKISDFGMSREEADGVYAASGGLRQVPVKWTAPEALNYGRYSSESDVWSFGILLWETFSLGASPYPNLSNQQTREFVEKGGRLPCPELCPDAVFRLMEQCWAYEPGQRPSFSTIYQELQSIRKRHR
Sequence of Sigma intracellular receptor 2 (Q5BJF2 whole entry): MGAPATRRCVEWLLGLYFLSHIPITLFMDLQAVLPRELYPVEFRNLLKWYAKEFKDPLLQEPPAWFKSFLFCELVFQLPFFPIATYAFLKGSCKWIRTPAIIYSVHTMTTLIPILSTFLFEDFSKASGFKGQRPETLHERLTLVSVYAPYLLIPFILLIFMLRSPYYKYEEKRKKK

| Structure (SMILES) | inhibition [1] [%] | inhibition [2] [%] | residual activity [3] [%] | residual activity [4] [%] | residual activity [5] [%] | residual activity [6] [%] | residual activity [7] [%] | residual activity [8] [%] | residual activity [9] [%] | residual activity [10] [%] | residual activity [11] [%] | residual activity [12] [%] | residual activity [13] [%] | residual activity [14] [%] | residual activity [15] [%] | residual activity [16] [%] | residual activity [17] [%] | residual activity [18] [%] | residual activity [19] [%] | residual activity [20] [%] | other results |
| --- | --- | --- | --- | --- | --- | --- | --- | --- | --- | --- | --- | --- | --- | --- | --- | --- | --- | --- | --- | --- | --- |
| CNC(=O)Nc1ccc2c(c1)[C@@]1(CC2)OC(=O)N(CC(=O)N(Cc2ccc(F)cc2)[C@@H](C)C(F)(F)F)C1=O [A-486] | 2 | -5 | 78 | 87 | 100 | 100 | 78 | 89 | 90 | 92 | 86 | 100 | 85 | 100 | 95 | 71 | 100 | 100 | 95 | 100 | residual activity [21]: 68%; residual activity [22]: 81%; residual activity [23]: 100%; residual activity [24]: 95%; residual activity [25]: 82%; residual activity [26]: 100%; inhibition [27]: 8.21%; inhibition [28]: 8.88%; inhibition [29]: 5.42%; inhibition [30]: 3.15%; inhibition [31]: 55.5%; inhibition [32]: 17.7% |
| CNC(=O)Nc1ccc2c(c1)CC[C@@]21OC(=O)N(CC(=O)N(Cc2ccc(F)cc2)[C@@H](C)C(F)(F)F)C1=O [A-485] | 12 | -4 | 71 | 100 | 96 | 95 | 90 | 84 | 100 | 88 | 80 | 92 | 94 | 100 | 94 | 65 | 79 | 100 | 100 | 100 | residual activity [21]: 67%; residual activity [22]: 79%; residual activity [23]: 92%; residual activity [24]: 96%; residual activity [25]: 84%; residual activity [26]: 75%; inhibition [27]: 18.5%; inhibition [28]: 20.7%; inhibition [29]: 2.64%; inhibition [30]: -0.28%; inhibition [31]: 50%; inhibition [32]: 34.5% |
